Measurements reported in PubChem BioAssay (NCI).
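Assay format: 96-well plates, 48-hour exposure. GI50 = concentration required for 50% inhibition of growth. TGI is the concentration that stops growth completely.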

Tests used:
Experiment in all cases: growth of human tumour cells (NCI), 48 h
SR leukemia = system: SR leukemia
NCI/ADR-RES ovarian = system: NCI/ADR-RES ovarian
786-0 renal = system: 786-0 renal
UACC-257 melanoma = system: UACC-257 melanoma
OVCAR-8 ovarian = system: OVCAR-8 ovarian
M14 melanoma = system: M14 melanoma
LOX IMVI melanoma = system: LOX IMVI melanoma
CAKI-1 renal = system: CAKI-1 renal
NCI-H522 lung = system: NCI-H522 lung
EKVX NSCLC = system: EKVX NSCLC
NCI-H460 lung = system: NCI-H460 lung
SF-268 CNS = system: SF-268 CNS
SK-MEL-2 melanoma = system: SK-MEL-2 melanoma
SK-OV-3 ovarian = system: SK-OV-3 ovarian
A498 renal = system: A498 renal
MOLT-4 leukemia = system: MOLT-4 leukemia
SF-539 CNS = system: SF-539 CNS
NCI-H226 lung = system: NCI-H226 lung
HOP-62 NSCLC = system: HOP-62 NSCLC
MDA-MB-231 breast = system: MDA-MB-231 breast
SF-295 CNS = system: SF-295 CNS
COLO 205 colon = system: COLO 205 colon
IGROV1 ovarian = system: IGROV1 ovarian
SK-MEL-5 melanoma = system: SK-MEL-5 melanoma
HT29 colon = system: HT29 colon
OVCAR-5 ovarian = system: OVCAR-5 ovarian
HCT-116 colon = system: HCT-116 colon
HOP-92 NSCLC = system: HOP-92 NSCLC
BT-549 breast = system: BT-549 breast
RPMI-8226 leukemia = system: RPMI-8226 leukemia
DU-145 prostate = system: DU-145 prostate
HCC-2998 colon = system: HCC-2998 colon
U251 CNS = system: U251 CNS
TK-10 renal = system: TK-10 renal
MCF7 breast = system: MCF7 breast
HL-60(TB) leukemia = system: HL-60(TB) leukemia
OVCAR-3 ovarian = system: OVCAR-3 ovarian
OVCAR-4 ovarian = system: OVCAR-4 ovarian
SW-620 colon = system: SW-620 colon
SK-MEL-28 melanoma = system: SK-MEL-28 melanoma
PC-3 prostate = system: PC-3 prostate
SNB-19 CNS = system: SNB-19 CNS
CCRF-CEM leukemia = system: CCRF-CEM leukemia
HCT-15 colon = system: HCT-15 colon
SN12C renal = system: SN12C renal
KM12 colon = system: KM12 colon
ACHN renal = system: ACHN renal
SNB-75 CNS = system: SNB-75 CNS
NCI-H23 lung = system: NCI-H23 lung
MDA-MB-435 = system: MDA-MB-435

SMILES: COc1ccc2c(c1)C(=O)c1c-2n(CCCNCCO)c(=O)c2cc([N+](=O)[O-])ccc12
- GI50 (SR leukemia): < 10 nM
- TGI (SR leukemia): < 10 nM
- GI50 (NCI/ADR-RES ovarian): < 10 nM
- TGI (NCI/ADR-RES ovarian): 1680 nM
- GI50 (786-0 renal): < 10 nM
- TGI (786-0 renal): < 10 nM
- GI50 (UACC-257 melanoma): 69.1 nM
- TGI (UACC-257 melanoma): 1960 nM
- GI50 (OVCAR-8 ovarian): < 10 nM
- TGI (OVCAR-8 ovarian): 1340 nM
- GI50 (M14 melanoma): < 10 nM
- TGI (M14 melanoma): 117 nM
- GI50 (LOX IMVI melanoma): < 10 nM
- TGI (LOX IMVI melanoma): 90.5 nM
- GI50 (CAKI-1 renal): < 10 nM
- TGI (CAKI-1 renal): 60.2 nM
- GI50 (NCI-H522 lung): < 10 nM
- TGI (NCI-H522 lung): 2820 nM
- GI50 (EKVX NSCLC): 73.3 nM
- TGI (EKVX NSCLC): 4770 nM
- GI50 (NCI-H460 lung): < 10 nM
- TGI (NCI-H460 lung): 14.8 nM
- GI50 (SF-268 CNS): < 10 nM
- TGI (SF-268 CNS): 378 nM
- GI50 (SK-MEL-2 melanoma): 427 nM
- TGI (SK-MEL-2 melanoma): 2300 nM
- GI50 (SK-OV-3 ovarian): < 10 nM
- TGI (SK-OV-3 ovarian): 1690 nM
- GI50 (A498 renal): < 15 nM
- TGI (A498 renal): < 48.2 nM
- GI50 (MOLT-4 leukemia): < 10 nM
- TGI (MOLT-4 leukemia): < 10 nM
- GI50 (SF-539 CNS): < 10 nM
- TGI (SF-539 CNS): < 10 nM
- GI50 (NCI-H226 lung): 47.7 nM
- TGI (NCI-H226 lung): 970 nM
- GI50 (HOP-62 NSCLC): < 10 nM
- TGI (HOP-62 NSCLC): 145 nM
- GI50 (MDA-MB-231 breast): 594 nM
- TGI (MDA-MB-231 breast): 2340 nM
- GI50 (SF-295 CNS): < 10 nM
- TGI (SF-295 CNS): 11.5 nM
- GI50 (COLO 205 colon): 18 nM
- TGI (COLO 205 colon): 2010 nM
- GI50 (IGROV1 ovarian): 28.3 nM
- TGI (IGROV1 ovarian): 1810 nM
- GI50 (SK-MEL-5 melanoma): < 10 nM
- TGI (SK-MEL-5 melanoma): < 25.1 nM
- GI50 (HT29 colon): < 10 nM
- TGI (HT29 colon): 1090 nM
- GI50 (OVCAR-5 ovarian): < 12.8 nM
- TGI (OVCAR-5 ovarian): 239 nM
- GI50 (HCT-116 colon): < 10 nM
- TGI (HCT-116 colon): 192 nM
- GI50 (HOP-92 NSCLC): < 10.8 nM
- TGI (HOP-92 NSCLC): 149 nM
- GI50 (BT-549 breast): 22.6 nM
- TGI (BT-549 breast): 1210 nM
- GI50 (RPMI-8226 leukemia): < 10 nM
- TGI (RPMI-8226 leukemia): 46.9 nM
- GI50 (DU-145 prostate): < 10 nM
- GI50 (HCC-2998 colon): < 23.2 nM
- TGI (HCC-2998 colon): 557 nM
- GI50 (U251 CNS): < 10 nM
- TGI (U251 CNS): 1030 nM
- GI50 (TK-10 renal): 280 nM
- TGI (TK-10 renal): 11800 nM
- GI50 (MCF7 breast): < 10 nM
- TGI (MCF7 breast): 26.4 nM
- GI50 (HL-60(TB) leukemia): < 10 nM
- TGI (HL-60(TB) leukemia): 122 nM
- GI50 (OVCAR-3 ovarian): 17.1 nM
- TGI (OVCAR-3 ovarian): 586 nM
- GI50 (OVCAR-4 ovarian): 36.1 nM
- TGI (OVCAR-4 ovarian): 1190 nM
- GI50 (SW-620 colon): < 10 nM
- TGI (SW-620 colon): 1140 nM
- GI50 (SK-MEL-28 melanoma): 12.4 nM
- TGI (SK-MEL-28 melanoma): 1500 nM
- GI50 (PC-3 prostate): < 13.7 nM
- TGI (PC-3 prostate): 1330 nM
- GI50 (SNB-19 CNS): < 10 nM
- TGI (SNB-19 CNS): 19900 nM
- GI50 (CCRF-CEM leukemia): < 10 nM
- TGI (CCRF-CEM leukemia): < 10 nM
- GI50 (HCT-15 colon): < 21.1 nM
- TGI (HCT-15 colon): 1190 nM
- GI50 (SN12C renal): < 10 nM
- TGI (SN12C renal): 4150 nM
- GI50 (KM12 colon): 25.5 nM
- TGI (KM12 colon): 739 nM
- GI50 (ACHN renal): < 10 nM
- TGI (ACHN renal): < 34 nM
- GI50 (SNB-75 CNS): < 10 nM
- TGI (SNB-75 CNS): 172 nM
- GI50 (NCI-H23 lung): < 10 nM
- TGI (NCI-H23 lung): 34.1 nM
- GI50 (MDA-MB-435): < 10 nM
- TGI (MDA-MB-435): 1060 nM
